Data reported in article PMC6941823, “A dispensable paralog of succinate dehydrogenase subunit C mediates standing resistance towards a subclass of SDHI fungicides in Zymoseptoria tritici” (PLoS Pathogens, 2019).

System: Zymoseptoria tritici on wheat variety Riband
Assay: In planta fungicide dose response
Format: in vivo
Details: for In planta EC50: application one day before infection
Procedure: The influence of the ZtSDHC3-driven SHA-SDHI resistance for the control of Z. tritici during wheat infection was assessed with a small range of commercial SDHIs (Fig 4C and 4D). In planta SDHIs sensitivity assays were performed with the 06STD024 isolate and its ZtSDHC1 or ZtSDHC3 KO mutants. A control strain (705) devoid of the ZtSDHC3 gene but more aggressive than IPO323 on wheat variety Riband was also included for comparison (Fig 4C and 4D).
Wheat (Triticum aestivum) variety Riband was grown in pots (d = 6.5cm), at a density of 4 plants per pot and treated with the growth regulator CCC (Chlorcholinchlorid; Chlormequat; 5 ml / pot, 0.4% solution) 4 days after sowing. Wheat plantlets were maintained in a climatic room at 18°C, 60% humidity and under a 12h light regime (high intensity). Fungicide applications were performed on 14 days old plantlets for which leaf 2 is the fully expanded target leaf. Fungicide treatments were performed using a custom-made track sprayer adjusted at 200L.ha^-1 (Nozzle: Lechler, orange LU90-01). […] Z. tritici infections were performed using a Devilbis airbrush (spray of about 150ml.m^-2) one day after fungicide application and using an inoculum grown on V8-agar adjusted to 1.8.10^6 spores.ml^-1 in 0.05% Tween20 in MQ water. Inoculated plants were initially incubated for 72h under reduced light conditions and high humidity using towel-covered Plexiglas hoods in a climatic chamber set to 21°C/19°C day/night alternations, 80% humidity and a 14h light regime. The Plexiglas hoods were then removed until evaluation. Plants were fertilized once per week and disease evaluation performed based on disease coverage on the second leaf approximately 16–19 days after infection, once untreated plants reached 75–90% disease coverage. Each fungicide was tested at several rates to produce dose responses. There were 3 pots (4 plants each) per fungicide rate and isolate, the whole experiment was repeated 4 times. In planta EC50 were calculated using the software GraphPad Prism v6.08.

## CON(C(=O)c1cn(C)nc1C(F)F)[C@@H](C)Cc1c(Cl)cc(Cl)cc1Cl [Pydiflumetofen]
06STD024 ZtSDHC1 KO on wheat Riband
  In planta EC50: 2.85 g.ha^-1
06STD024 ZtSDHC3 KO mutant on wheat Riband
  In planta EC50: 0.053 g.ha^-1
WT isolate 06STD024 on wheat Riband
  In planta EC50: 1.31 g.ha^-1
WT isolate 06STD024 vs 06STD024 ZtSDHC3 KO
  In planta sensitivity difference compared to the ZtSDHC3 KO mutant: 25 fold
